The results in this text go back to patent publication US20250213735A1, “NEUROPEPTIDE Y1 RECEPTOR (NPY1R) TARGETED THERAPEUTICS AND USES THEREOF” (Radionetics Oncology, Inc., priority 2023, published 2025).

Where only a bound is given, the exact number is not on record here.

For this assay, the target named is hNPY1R (Homo sapiens (Human), UniProt P25929). Kind of assay: NPY1R binding assay (SK-N-MC membrane, [125I]-Peptide YY competition).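 Note: bound radioligand separated by filtration over GF/C filter plates and counted, Ki obtained by non-linear regression.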 The conditions noted are these: crude SK-N-MC membranes endogenously expressing NPY1R; [125I]-Peptide YY (human) 0.05 nM; 120 min at room temperature; read-out: hNPY1R binding Ki.
Chain of hNPY1R (P25929 whole entry): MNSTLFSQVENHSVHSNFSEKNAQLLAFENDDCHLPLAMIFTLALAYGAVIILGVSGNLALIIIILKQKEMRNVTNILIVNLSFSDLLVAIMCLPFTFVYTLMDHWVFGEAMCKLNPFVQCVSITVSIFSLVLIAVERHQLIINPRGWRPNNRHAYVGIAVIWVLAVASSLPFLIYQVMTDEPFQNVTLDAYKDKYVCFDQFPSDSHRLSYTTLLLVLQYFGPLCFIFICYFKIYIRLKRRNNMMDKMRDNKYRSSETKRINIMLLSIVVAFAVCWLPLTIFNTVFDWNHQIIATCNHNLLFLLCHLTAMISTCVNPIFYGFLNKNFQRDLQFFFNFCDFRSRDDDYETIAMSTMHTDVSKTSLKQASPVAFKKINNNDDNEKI

Protocol: Crude membrane fractions are prepared from SK-N-MC cells endogenously expressing the NPY1R receptor. The cells are grown to 85-100% confluence on standard tissue culture dishes in Eagle's Minimum Essential Medium supplemented with 10% dialyzed FBS. To prepare membranes, cells are scraped and collected in 1× Dulbecco's phosphate buffered saline and then pelleted at 1000 RPM's. The cell pellet is reconstituted in membrane preparation buffer (20 mM HEPES, 6 mM MgCl2 and 1 mM EGTA, protease inhibitor tablets, pH 7.4) and placed in a cell disruption vessel at 1000 PSI for 30 minutes on ice. The pressurized contents are then released and spun down at 1000 RPMs and the supernatant is collected and further centrifuged at 15,000 RPMs to pellet the membranes. The membrane pellet is resuspended in membrane preparation buffer, snap frozen and stored at −80° C. for later use.
Assay contents are then filtered through unifilter GF/C microplates and washed with 9×400 μl of cold wash buffer (25 mM HEPES, 5 mM MgCl2, 1 mM CaCl2), 500 mM NaCl, 0.1% Tween-20, pH 7.4). Assay plates are read using a Top Count NXT and Ki values for compounds are determined using a GraphPad Prism 6 non-linear regression analysis.

`N=C(N)NCCC[C@@H](NC(=O)C(c1ccccc1)N1Cc2ccccc2C1)C(=O)NCc1ccc(O)cc1` (stereo partly drawn) [compound 68, (2R)-5-guanidino-N-(4-hydroxybenzyl)-2-(2-(isoindolin-2-yl)-2-phenylacetamido)pentanamide]: the Ki lay within 10 to 100 nM.

As for `N=C(N)NCCC[C@@H](NC(=O)[C@H](c1ccccc1)N1Cc2ccccc2C1)C(=O)NCc1c(F)cc(O)cc1F` [compound 69, (R)—N-(2,6-difluoro-4-hydroxybenzyl)-5-guanidino-2-((S)-2-(isoindolin-2-yl)-2-phenylacetamido)pentanamide], the Ki was less than 10 nM.

For `N=C(N)NCCC[C@@H](NC(=O)[C@H](c1ccccc1)N1Cc2ccccc2C1)C(=O)NCc1ccc(O)cc1` [compound 70, (R)-5-guanidino-N-(4-hydroxybenzyl)-2-((S)-2-(isoindolin-2-yl)-2-phenylacetamido)pentanamide], the Ki fell in the range of 10 to 100 nM.

Take `N=C(N)NCCC[C@@H](NC(=O)C(c1ccccc1)N1CCCCC1)C(=O)NCc1ccc(O)cc1` (stereo partly drawn) [compound 72, (2R)-5-guanidino-N-(4-hydroxybenzyl)-2-(2-phenyl-2-(piperidin-1-yl)acetamido)pentanamide]: the Ki lay in the range of 100 to 1000 nM.

As for `N=C(N)NCCC[C@@H](NC(=O)C(c1ccccc1)N1CCC(C(F)(F)F)CC1)C(=O)NCc1ccc(O)cc1` (stereo partly drawn) [compound 73, (2R)-5-guanidino-N-(4-hydroxybenzyl)-2-(2-phenyl-2-(4-(trifluoromethyl)piperidin-1-yl)acetamido)pentanamide], the Ki is 100 to 1000 nM.

As for `CC1(C)CCN(C(C(=O)N[C@H](CCCNC(=N)N)C(=O)NCc2ccc(O)cc2)c2ccccc2)CC1` (stereo partly drawn) [compound 74, (2R)-2-(2-(4,4-dimethylpiperidin-1-yl)-2-phenylacetamido)-5-guanidino-N-(4-hydroxybenzyl)pentanamide], the Ki was 100 to 1000 nM.

Turning to `CC1(C)CCCN(C(C(=O)N[C@H](CCCNC(=N)N)C(=O)NCc2ccc(O)cc2)c2ccccc2)C1` (stereo partly drawn) [compound 75, (2R)-2-(2-(3,3-dimethylpiperidin-1-yl)-2-phenylacetamido)-5-guanidino-N-(4-hydroxybenzyl)pentanamide], the Ki lay within 100 to 1000 nM.

As to `N=C(N)NCCC[C@@H](NC(=O)C(c1ccccc1)N1CCN(c2ccccc2)CC1)C(=O)NCc1ccc(O)cc1` (stereo partly drawn) [compound 76, (2R)-5-guanidino-N-(4-hydroxybenzyl)-2-(2-phenyl-2-(4-phenylpiperazin-1-yl)acetamido)pentanamide], the Ki is more than 1000 nM.

With `CC(C)C1CCN(C(C(=O)N[C@H](CCCNC(=N)N)C(=O)NCc2ccc(O)cc2)c2ccccc2)CC1` (stereo partly drawn) [compound 77, (2R)-5-guanidino-N-(4-hydroxybenzyl)-2-(2-(4-isopropylpiperidin-1-yl)-2-phenylacetamido)pentanamide], the Ki lay within 10 to 100 nM.

For the compound `CCCC1CCN([C@H](C(=O)N[C@H](CCCNC(=N)N)C(=O)NCc2ccc(O)cc2)c2ccccc2)CC1` [compound 78, (R)-5-guanidino-N-(4-hydroxybenzyl)-2-((S)-2-phenyl-2-(4-propylpiperidin-1-yl)acetamido)pentanamide], the Ki is 100 to 1000 nM.

As for `CCC1CCN(C(C(=O)N[C@H](CCCNC(=N)N)C(=O)NCc2ccc(O)cc2)c2ccccc2)CC1` (stereo partly drawn) [compound 79, (2R)-2-(2-(4-ethylpiperidin-1-yl)-2-phenylacetamido)-5-guanidino-N-(4-hydroxybenzyl)pentanamide], the Ki fell in the range of 10 to 100 nM.

Turning to `CC(C)(C)C1CCN(C(C(=O)N[C@H](CCCNC(=N)N)C(=O)NCc2ccc(O)cc2)c2ccccc2)CC1` (stereo partly drawn) [compound 80, (2R)-2-(2-(4-(tert-butyl)piperidin-1-yl)-2-phenylacetamido)-5-guanidino-N-(4-hydroxybenzyl)pentanamide], the Ki fell in the range of 10 to 100 nM.

Consider `N=C(N)NCCC[C@@H](NC(=O)C(c1ccccc1)N1CCC(C2CC2)CC1)C(=O)NCc1ccc(O)cc1` (stereo partly drawn) [compound 81, (2R)-2-(2-(4-cyclopropylpiperidin-1-yl)-2-phenylacetamido)-5-guanidino-N-(4-hydroxybenzyl)pentanamide], for which the Ki was in the range of 100 to 1000 nM.

With `CC(C)CC1CCN(C(C(=O)N[C@H](CCCNC(=N)N)C(=O)NCc2ccc(O)cc2)c2ccccc2)CC1` (stereo partly drawn) [compound 82, (2R)-5-guanidino-N-(4-hydroxybenzyl)-2-(2-(4-isobutylpiperidin-1-yl)-2-phenylacetamido)pentanamide], the Ki is 100 to 1000 nM.

`N=C(N)NCCC[C@@H](NC(=O)C(c1ccccc1)N1CCC(C2CCCCC2)CC1)C(=O)NCc1ccc(O)cc1` (stereo partly drawn) [compound 83, (2R)-2-(2-(4-cyclohexylpiperidin-1-yl)-2-phenylacetamido)-5-guanidino-N-(4-hydroxybenzyl)pentanamide]: the Ki was more than 1000 nM.

Regarding `N=C(N)NCCC[C@@H](NC(=O)C(c1ccccc1)N1CCC2(CCCC2)CC1)C(=O)NCc1ccc(O)cc1` (stereo partly drawn) [compound 84, (2R)-5-guanidino-N-(4-hydroxybenzyl)-2-(2-phenyl-2-(8-azaspiro[4.5]decan-8-yl)acetamido)pentanamide], the Ki lay within 100 to 1000 nM.

For `N=C(N)NCCC[C@@H](NC(=O)C(c1ccccc1)N1CCC2(CC1)CC2)C(=O)NCc1ccc(O)cc1` (stereo partly drawn) [compound 85, (2R)-5-guanidino-N-(4-hydroxybenzyl)-2-(2-phenyl-2-(6-azaspiro[2.5]octan-6-yl)acetamido)pentanamide], the Ki fell in the range of 10 to 100 nM.

`N=C(N)NCCC[C@@H](NC(=O)C(c1ccccc1)N1CCC(c2ccccc2)CC1)C(=O)NCc1ccc(O)cc1` (stereo partly drawn) [compound 86, (2R)-5-guanidino-N-(4-hydroxybenzyl)-2-(2-phenyl-2-(4-phenylpiperidin-1-yl)acetamido)pentanamide]: the Ki fell in the range of 100 to 1000 nM.

Consider `N=C(N)NCCC[C@@H](NC(=O)C(c1ccccc1)N1CCC2(CCCCC2)CC1)C(=O)NCc1ccc(O)cc1` (stereo partly drawn) [compound 87, (2R)-5-guanidino-N-(4-hydroxybenzyl)-2-(2-phenyl-2-(3-azaspiro[5.5]undecan-3-yl)acetamido)pentanamide], for which the Ki fell in the range of 100 to 1000 nM.

For `N=C(N)NCCC[C@@H](NC(=O)C(c1ccccc1)N1CCC2(CCC2)CC1)C(=O)NCc1ccc(O)cc1` (stereo partly drawn) [compound 89, (2R)-5-guanidino-N-(4-hydroxybenzyl)-2-(2-phenyl-2-(7-azaspiro[3.5]nonan-7-yl)acetamido)pentanamide], the Ki fell in the range of 10 to 100 nM.

Turning to `N=C(N)NCCC[C@@H](NC(=O)C(c1ccccc1)N1CCC2(CC1)CC(F)(F)C2)C(=O)NCc1ccc(O)cc1` (stereo partly drawn) [compound 90, (2R)-2-(2-(2,2-difluoro-7-azaspiro[3.5]nonan-7-yl)-2-phenylacetamido)-5-guanidino-N-(4-hydroxybenzyl)pentanamide], the Ki is 100 to 1000 nM.

Regarding `CCNC(=O)/N=C(/N)NCCC[C@@H](NC(=O)C(c1ccccc1)N1CCC(C(C)(C)C)CC1)C(=O)NCc1ccc(O)cc1` (stereo partly drawn) [compound 91, (2R)-2-(2-(4-(tert-butyl)piperidin-1-yl)-2-phenylacetamido)-5-((Z)-2-(ethylcarbamoyl)guanidino)-N-(4-hydroxybenzyl)pentanamide], the Ki is less than 10 nM.

For `CCNC(=O)/N=C(/N)NCCC[C@@H](NC(=O)C(c1ccccc1)N1CCC(C(C)(C)C)CC1)C(=O)NCc1c(F)cc(O)cc1F` (stereo partly drawn) [compound 92, (2R)-2-(2-(4-(tert-butyl)piperidin-1-yl)-2-phenylacetamido)-N-(2,6-difluoro-4-hydroxybenzyl)-5-((Z)-2-(ethylcarbamoyl)guanidino)pentanamide], the Ki is less than 10 nM.

A word on the Ki: it is the dissociation constant of the complex between target and ligand, obtained from inhibition or displacement.
